From PubChem BioAssay AID248 (DTP/NCI, 2004)
Values joined by “and” are separate entries in the source; they are usually repeats but may differ in a detail not shown here. Equal values may be shown once. Inconclusive results and toxic doses are left out. No stated cut-off is given here; in the data, active means T/C of 150% or more; inactive means T/C below 125%. Peptide text beside a SMILES is read from it. * marks the point of attachment. Cbz = O=C(OCc1ccccc1)*; OBn = c1ccc(CO*)cc1; Bn = c1ccc(C*)cc1

System: L1210 leukemia ip in BDF1 mice, survival T/C
Assay: NCI In Vivo Anticancer Drug Screen. Data for tumor model L1210 Leukemia (intraperitoneal) in B6D2F1 (BDF1) mice
Conditions: endpoint: mean survival time, higher = longer survival
Summary of the method: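 Tumor was transplanted into mice, which were then dosed with test compound or vehicle alone. Survival was recorded for each group, and the treated figure was expressed relative to the control figure.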

[1] = dose: 50.0 mg/kg/injection, schedule: Q01DX001 (ip), vehicle: saline
[2] = dose: 100.0 mg/kg/injection, schedule: Q01DX001 (ip), vehicle: saline
[3] = dose: 200.0 mg/kg/injection, schedule: Q01DX001 (ip), vehicle: saline
[4] = dose: 400.0 mg/kg/injection, schedule: Q01DX001 (ip), vehicle: saline
[5] = dose: 100.0 mg/kg/injection, schedule: Q04DX002 (ip), vehicle: Klucel (hydroxypropylcellulose) (HPC)
[6] = dose: 100.0 mg/kg/injection, schedule: Q01DX009 (ip), vehicle: saline
[7] = dose: 100.0 mg/kg/injection, schedule: Q04DX003 (ip), vehicle: saline
[8] = dose: 200.0 mg/kg/injection, schedule: Q04DX003 (ip), vehicle: saline
[9] = dose: 400.0 mg/kg/injection, schedule: Q04DX003 (ip), vehicle: saline
[10] = dose: 100.0 mg/kg/injection, schedule: Q01DX009 (ip), vehicle: saline with Tween-80
[11] = dose: 200.0 mg/kg/injection, schedule: Q01DX009 (ip), vehicle: saline with Tween-80
[12] = dose: 400.0 mg/kg/injection, schedule: Q01DX009 (ip), vehicle: saline with Tween-80
[13] = dose: 100.0 mg/kg/injection, schedule: Q01DX009 (ip), vehicle: Klucel (hydroxypropylcellulose) (HPC)
[14] = dose: 200.0 mg/kg/injection, schedule: Q01DX009 (ip), vehicle: Klucel (hydroxypropylcellulose) (HPC)
[15] = dose: 400.0 mg/kg/injection, schedule: Q01DX009 (ip), vehicle: Klucel (hydroxypropylcellulose) (HPC)

Measured: T/C

O=C(CCCC(=O)N/N=C/c1ccc([N+](=O)[O-])cc1)N/N=C\c1ccc([N+](=O)[O-])cc1
inactive: [1] 93 % of control | [2] 100 % of control | [3] 103 % of control | [4] 103 % of control

O=C(O)/C=C\C(=O)Nc1ccccn1
inactive: [2] 92 % of control | [3] 100 % of control | [4] 103 % of control

C=CS(=O)(=O)CCCCCCCC
inactive: dose: 75.0 mg/kg/injection, schedule: Q01DX001 (ip), vehicle: saline 97 % of control | dose: 75.0 mg/kg/injection, schedule: Q04DX003 (ip), vehicle: other 92 % of control | dose: 150.0 mg/kg/injection, schedule: Q01DX001 (ip), vehicle: saline 89 % of control | dose: 150.0 mg/kg/injection, schedule: Q04DX003 (ip), vehicle: other 100 % of control | dose: 300.0 mg/kg/injection, schedule: Q01DX001 (ip), vehicle: saline 91 % of control | dose: 300.0 mg/kg/injection, schedule: Q04DX003 (ip), vehicle: other 89 % of control

CC(C)CC(NC(=O)C(CSCc1ccccc1)NC(=O)OCc1ccccc1)C(=O)OCc1ccccc1 (stereo not drawn) (Cbz-Cys(Bn)-Leu-OBn; configuration not given here)
inactive: dose: 100.0 mg/kg/injection, schedule: Q04DX003 (ip), vehicle: gum acacia 93 % of control | dose: 200.0 mg/kg/injection, schedule: Q04DX003 (ip), vehicle: gum acacia 93 % of control | dose: 400.0 mg/kg/injection, schedule: Q04DX003 (ip), vehicle: gum acacia 91 % of control

Cn1c(=O)c2[nH]c(C3CCCCCC3)nc2n(C)c1=O
inactive: [1] 87 % of control | [2] 96 % of control | [3] 87 % of control

Cc1ccc(NC(=O)N(CCO)C2CCCCC2)c([N+](=O)[O-])c1
inactive: dose: 100.0 mg/kg/injection, schedule: Q04DX003 (ip), vehicle: Klucel (hydroxypropylcellulose) (HPC) 87 % of control | dose: 200.0 mg/kg/injection, schedule: Q04DX003 (ip), vehicle: Klucel (hydroxypropylcellulose) (HPC) 98 % of control | dose: 400.0 mg/kg/injection, schedule: Q04DX003 (ip), vehicle: Klucel (hydroxypropylcellulose) (HPC) 96 % of control

O=C1CC2(O)CCC1(c1ccccc1)CC2
inactive: dose: 75.0 mg/kg/injection, schedule: Q04DX002 (ip), vehicle: Klucel (hydroxypropylcellulose) (HPC) 92 % of control | dose: 150.0 mg/kg/injection, schedule: Q04DX002 (ip), vehicle: Klucel (hydroxypropylcellulose) (HPC) 100 % of control | dose: 300.0 mg/kg/injection, schedule: Q04DX002 (ip), vehicle: Klucel (hydroxypropylcellulose) (HPC) 95 % of control

O=c1ccnc(SCc2ccc(Cl)cc2)[nH]1
inactive: dose: 110.0 mg/kg/injection, schedule: Q01DX Z (ip), vehicle: methylcellulose (MC) 87 % of control

CC1CCC2(NC1)OC1CC3C4CC=C5CC(OC(=O)N(CCCl)CCCl)CCC5(C)C4CCC3(C)C1C2C (stereo not drawn)
inactive: dose: 100.0 mg/kg/injection, schedule: Q01DX001 (sc), vehicle: steriod suspending solution 97 % of control | dose: 200.0 mg/kg/injection, schedule: Q01DX001 (sc), vehicle: steriod suspending solution 123 % of control | dose: 400.0 mg/kg/injection, schedule: Q01DX001 (sc), vehicle: steriod suspending solution 97 % of control

O=Cc1cccn1Cc1cc2c(cc1[N+](=O)[O-])OCO2
inactive: dose: 25.0 mg/kg/injection, schedule: Q04DX002 (ip), vehicle: Klucel (hydroxypropylcellulose) (HPC) 101 % of control | dose: 50.0 mg/kg/injection, schedule: Q04DX002 (ip), vehicle: Klucel (hydroxypropylcellulose) (HPC) 101 % of control | [5] 97 % of control

c1ccc2c(c1)OCCOCCOc1ccccc1OCCOCCO2
inactive: [6] 98 % of control and 89 % of control | [7] 94 % of control and 92 % of control | dose: 200.0 mg/kg/injection, schedule: Q01DX009 (ip), vehicle: saline 101 % of control and 92 % of control | [8] 93 % of control and 92 % of control | dose: 400.0 mg/kg/injection, schedule: Q01DX009 (ip), vehicle: saline 94 % of control and 91 % of control | [9] 89 % of control and 90 % of control

Cc1ccc(SC(=O)Cc2ccc([N+](=O)[O-])cc2)cc1
inactive: [10] 97 % of control | [11] 86 % of control | [12] 93 % of control

O=C(CNC(=O)OCc1ccccc1)NC(Cc1ccccc1)C(=O)Oc1c(Cl)c(Cl)c(Cl)c(Cl)c1Cl (stereo not drawn)
inactive: dose: 75.0 mg/kg/injection, schedule: Q01DX001 (ip), vehicle: carboxymethylcellulose (CMC) 106 % of control | dose: 150.0 mg/kg/injection, schedule: Q01DX001 (ip), vehicle: carboxymethylcellulose (CMC) 98 % of control | dose: 300.0 mg/kg/injection, schedule: Q01DX001 (ip), vehicle: carboxymethylcellulose (CMC) 91 % of control

NC1(C(=O)O)C2CC3CC(C2)CC1C3 (stereo not drawn)
inactive: dose: 50.0 mg/kg/injection, schedule: Q01DX009 (ip), vehicle: other 100 % of control | dose: 100.0 mg/kg/injection, schedule: Q01DX009 (ip), vehicle: other 105 % of control | dose: 100.0 mg/kg/injection, schedule: Q04DX003 (ip), vehicle: alcohol 96 % of control | dose: 200.0 mg/kg/injection, schedule: Q01DX009 (ip), vehicle: other 92 % of control | dose: 200.0 mg/kg/injection, schedule: Q04DX003 (ip), vehicle: alcohol 95 % of control

COc1ccc(/C=C/C(=O)c2cc(O)cc(OC)c2)cc1
inactive: [10] 102 % of control | dose: 100.0 mg/kg/injection, schedule: Q04DX003 (ip), vehicle: saline with Tween-80 100 % of control | [11] 94 % of control | dose: 200.0 mg/kg/injection, schedule: Q04DX003 (ip), vehicle: saline with Tween-80 108 % of control | [12] 94 % of control | dose: 400.0 mg/kg/injection, schedule: Q04DX003 (ip), vehicle: saline with Tween-80 95 % of control

CC1CC(=O)CC(C)(C)N1 (stereo not drawn)
inactive: [2] 105 % of control | [3] 98 % of control | [4] 94 % of control

O=C(COc1ccccc1)NCc1ccccc1
inactive: [7] 94 % of control | [8] 92 % of control | [9] 92 % of control

Clc1cc(Cl)c(OCC#CI)c(Cl)c1Cl
inactive: dose: 6.25 mg/kg/injection, schedule: Q01DX009 (ip), vehicle: Klucel (hydroxypropylcellulose) (HPC) 100 % of control | dose: 12.5 mg/kg/injection, schedule: Q01DX009 (ip), vehicle: Klucel (hydroxypropylcellulose) (HPC) 97 % of control | dose: 25.0 mg/kg/injection, schedule: Q01DX009 (ip), vehicle: Klucel (hydroxypropylcellulose) (HPC) 92 % of control | dose: 50.0 mg/kg/injection, schedule: Q01DX009 (ip), vehicle: Klucel (hydroxypropylcellulose) (HPC) 96 % of control | dose: 75.0 mg/kg/injection, schedule: Q01DX009 (ip), vehicle: Klucel (hydroxypropylcellulose) (HPC) 98 % of control | dose: 115.0 mg/kg/injection, schedule: Q01DX009 (ip), vehicle: Klucel (hydroxypropylcellulose) (HPC) 94 % of control | dose: 170.0 mg/kg/injection, schedule: Q01DX009 (ip), vehicle: Klucel (hydroxypropylcellulose) (HPC) 93 % of control

COC(=O)C1CC(=O)C(C(=O)OC)CC1=O (stereo not drawn)
inactive: [13] 89 % of control | [14] 92 % of control | [15] 89 % of control

CC(=O)OC1CCC2(C)C(=CCC3C2CCC2(C)C3CC3OC4(CCC(C)CO4)C(C)C32)C1 (stereo not drawn)
inactive: [13] 98 % of control | [14] 96 % of control | [15] 95 % of control

CCN(CC)Cc1ccccc1COC(=O)c1ccc([N+](=O)[O-])cc1
inactive: [5] 97 % of control | dose: 200.0 mg/kg/injection, schedule: Q04DX002 (ip), vehicle: Klucel (hydroxypropylcellulose) (HPC) 94 % of control | dose: 400.0 mg/kg/injection, schedule: Q04DX002 (ip), vehicle: Klucel (hydroxypropylcellulose) (HPC) 101 % of control

CN(C)CCN(C(=O)c1ccc(N)cc1)c1ccccc1
inactive: dose: 50.0 mg/kg/injection, schedule: Q01DX009 (ip), vehicle: saline 91 % of control | [6] 109 % of control

CC(C)CC(C)OB(OC(C)CC(C)C)OC(C)CC(C)C (stereo not drawn)
inactive: dose: 50.0 mg/kg/injection, schedule: Q01DX001 (ip), vehicle: carboxymethylcellulose (CMC) 102 % of control | dose: 100.0 mg/kg/injection, schedule: Q01DX001 (ip), vehicle: carboxymethylcellulose (CMC) 111 % of control | dose: 200.0 mg/kg/injection, schedule: Q01DX001 (ip), vehicle: carboxymethylcellulose (CMC) 102 % of control | dose: 400.0 mg/kg/injection, schedule: Q01DX001 (ip), vehicle: carboxymethylcellulose (CMC) 96 % of control
